Data: ChEMBL document CHEMBL1201862, “PubChem BioAssay data set” (2004)
Active and inactive are the calls of the source. Rule as the data show it, for most assays here: actives have a measured EC50 and inactives only a lower limit.

Tests used:
[1] = cytotoxicity in HEK-293T cells, dose response, cytotoxicity control for BCR NF-kB inhibitor project, luminescence, B-cell screen hits (AID 489021); format: functional, cell-based;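 also: HEK-293T cells carrying an NF-kB luciferase reporter; cells exposed to compound for about 14 hours before viability readout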
HEK293 = assay: inhibitors of LMP1-driven NF-kB reporter, dose response, cell-based, HEK293, luciferase, cherry-pick (AID 588343); format: functional; settings: Homo sapiens
[2] = target: Latent membrane protein 1 (Human herpesvirus 4 (strain B95-8), UniProt P03230); assay: TES1-eGFP NF-kB reporter inhibition versus Tet-On dsRED, dose response, selectivity assay for LMP1 NF-kB inhibitor project, imaging, HEK293T, dual-color eGFP/dsRED, cherry-picks (AID 588398); format: functional, cell-based
Latent membrane protein 1, sequence (P03230 whole entry): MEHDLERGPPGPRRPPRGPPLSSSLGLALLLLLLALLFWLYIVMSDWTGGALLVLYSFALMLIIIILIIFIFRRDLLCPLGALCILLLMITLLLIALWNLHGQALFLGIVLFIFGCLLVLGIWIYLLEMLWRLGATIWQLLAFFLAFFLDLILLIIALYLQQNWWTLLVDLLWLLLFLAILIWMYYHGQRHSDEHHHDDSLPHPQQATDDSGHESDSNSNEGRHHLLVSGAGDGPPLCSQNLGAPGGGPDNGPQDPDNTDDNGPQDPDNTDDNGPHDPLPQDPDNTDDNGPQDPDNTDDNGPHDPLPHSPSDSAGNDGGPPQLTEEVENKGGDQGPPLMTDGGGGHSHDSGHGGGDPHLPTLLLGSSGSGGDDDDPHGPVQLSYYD

[3] = target: Potassium voltage-gated channel subfamily KQT member 2 (Rattus norvegicus, UniProt O88943); assay: KCNQ2 potassium channel inhibitors, dose response, cell-based, automated electrophysiology, set II, rat KCNQ2 (AID 588637); format: functional
Potassium voltage-gated channel subfamily KQT member 2, sequence (O88943 whole entry): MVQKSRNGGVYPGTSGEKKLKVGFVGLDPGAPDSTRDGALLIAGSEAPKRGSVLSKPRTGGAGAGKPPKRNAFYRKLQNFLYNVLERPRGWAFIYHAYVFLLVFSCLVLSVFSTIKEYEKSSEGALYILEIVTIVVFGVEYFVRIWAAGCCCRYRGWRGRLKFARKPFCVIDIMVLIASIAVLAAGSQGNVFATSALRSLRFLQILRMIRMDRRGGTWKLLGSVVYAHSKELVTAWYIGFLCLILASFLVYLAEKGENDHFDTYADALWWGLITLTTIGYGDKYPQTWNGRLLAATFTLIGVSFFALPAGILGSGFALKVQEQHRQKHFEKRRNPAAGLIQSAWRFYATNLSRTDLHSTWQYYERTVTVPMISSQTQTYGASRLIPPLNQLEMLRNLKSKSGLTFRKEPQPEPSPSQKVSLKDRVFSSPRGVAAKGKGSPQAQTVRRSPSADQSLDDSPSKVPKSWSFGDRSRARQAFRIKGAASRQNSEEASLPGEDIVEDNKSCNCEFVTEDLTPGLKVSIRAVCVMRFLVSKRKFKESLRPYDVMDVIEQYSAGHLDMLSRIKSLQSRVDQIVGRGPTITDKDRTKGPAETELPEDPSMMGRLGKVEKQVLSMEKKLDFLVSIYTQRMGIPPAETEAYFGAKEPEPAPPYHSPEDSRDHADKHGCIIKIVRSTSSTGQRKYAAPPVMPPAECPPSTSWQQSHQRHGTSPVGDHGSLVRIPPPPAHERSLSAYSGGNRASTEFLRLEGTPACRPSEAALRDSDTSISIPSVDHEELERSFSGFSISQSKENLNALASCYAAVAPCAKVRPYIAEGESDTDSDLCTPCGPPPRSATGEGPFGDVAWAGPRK

Vero = assay: cells; format: functional; settings: Chlorocebus sabaeus
[4] = NIH-3T3 fibroblast cytotoxicity, dose response, cytotoxicity control, cell-based, fluorescence, Alamar Blue, secondary assay (AID 2327); format: functional;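 also: NIH-3T3 mouse fibroblasts cultured with fluconazole at 8 µg/mL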
[5] = C. albicans growth with fluconazole, confirmation, fluorescence, retest (AID 2467); format: functional, cell-based
[6] = target: Serine/threonine-protein phosphatase (Candida dubliniensis (strain CD36 / CBS 7987 / NCPF 3949 / NRRLY-17841) (Yeast), UniProt B9W6M3); assay: calcineurin pathway inhibitors in yeast reporter, dose response, S. cerevisiae, CDRE-lacZ, luminescence, secondary (AID 2388); format: functional, cell-based;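 also: yeast reporter cells carrying a calcineurin-responsive lacZ construct stimulated with calcium chloride; luminescent beta-galactosidase reporter signal in whole cells rather than isolated phosphatase activity; potency for inhibition where a drop in reporter signal means calcineurin blockade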
Serine/threonine-protein phosphatase, sequence (B9W6M3 whole entry): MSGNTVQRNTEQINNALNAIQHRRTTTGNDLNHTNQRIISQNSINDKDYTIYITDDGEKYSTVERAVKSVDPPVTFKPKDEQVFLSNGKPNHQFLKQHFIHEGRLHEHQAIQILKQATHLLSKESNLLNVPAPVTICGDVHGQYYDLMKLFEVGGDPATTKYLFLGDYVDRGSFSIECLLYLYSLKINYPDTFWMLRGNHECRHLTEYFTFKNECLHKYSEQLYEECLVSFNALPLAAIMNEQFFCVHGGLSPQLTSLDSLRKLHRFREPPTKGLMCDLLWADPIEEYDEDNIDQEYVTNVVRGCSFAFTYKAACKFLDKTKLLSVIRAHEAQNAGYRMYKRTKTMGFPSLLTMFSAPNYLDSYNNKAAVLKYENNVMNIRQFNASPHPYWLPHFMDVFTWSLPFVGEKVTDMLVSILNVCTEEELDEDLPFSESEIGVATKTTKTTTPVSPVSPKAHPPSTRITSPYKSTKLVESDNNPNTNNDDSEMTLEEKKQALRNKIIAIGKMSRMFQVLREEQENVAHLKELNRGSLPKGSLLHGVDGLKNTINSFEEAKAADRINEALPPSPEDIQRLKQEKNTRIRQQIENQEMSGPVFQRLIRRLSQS

[7] = target: ATP-dependent molecular chaperone HSP82 (Candida albicans (strain WO-1) (Yeast), UniProt C4YTQ8); assay: loss of DOC-induced GRE-beta-galactosidase reporter signal, dose response, Hsp90 inhibitor project, S. cerevisiae, luminescence (AID 2400); format: functional, cell-based;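 also: beta-galactosidase luminescence from glucocorticoid response element reporter as proxy for Hsp90 function; inhibitor potency where signal loss means Hsp90 inhibition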
ATP-dependent molecular chaperone HSP82, sequence (C4YTQ8 whole entry): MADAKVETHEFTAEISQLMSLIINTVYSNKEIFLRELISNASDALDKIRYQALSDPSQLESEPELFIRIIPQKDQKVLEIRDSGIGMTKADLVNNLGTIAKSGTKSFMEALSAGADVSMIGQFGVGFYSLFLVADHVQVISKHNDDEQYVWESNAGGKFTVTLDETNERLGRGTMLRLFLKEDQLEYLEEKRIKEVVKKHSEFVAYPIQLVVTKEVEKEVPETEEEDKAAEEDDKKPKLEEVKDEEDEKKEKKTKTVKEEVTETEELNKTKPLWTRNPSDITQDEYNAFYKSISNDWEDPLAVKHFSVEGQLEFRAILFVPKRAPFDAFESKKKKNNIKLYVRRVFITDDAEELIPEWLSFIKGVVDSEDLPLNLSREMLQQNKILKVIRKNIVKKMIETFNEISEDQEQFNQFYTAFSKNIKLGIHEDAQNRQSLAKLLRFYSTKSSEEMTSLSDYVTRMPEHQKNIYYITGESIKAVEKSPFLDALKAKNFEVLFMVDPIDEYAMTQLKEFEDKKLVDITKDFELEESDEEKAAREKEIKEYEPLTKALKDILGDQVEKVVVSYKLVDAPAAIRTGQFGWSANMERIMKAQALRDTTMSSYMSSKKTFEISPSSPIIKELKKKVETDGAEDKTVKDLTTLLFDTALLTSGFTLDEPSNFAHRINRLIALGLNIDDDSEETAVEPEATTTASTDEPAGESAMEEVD

Melanocortin receptor 4 = Melanocortin receptor 4 (Homo sapiens, UniProt P32245); assay: MC4R antagonist potency on cAMP, dose response, cell-based, TR-FRET, biased antagonists (AID 602298); format: functional;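 also: antagonist potency against agonist-stimulated cAMP production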
Melanocortin receptor 4, sequence (P32245 whole entry): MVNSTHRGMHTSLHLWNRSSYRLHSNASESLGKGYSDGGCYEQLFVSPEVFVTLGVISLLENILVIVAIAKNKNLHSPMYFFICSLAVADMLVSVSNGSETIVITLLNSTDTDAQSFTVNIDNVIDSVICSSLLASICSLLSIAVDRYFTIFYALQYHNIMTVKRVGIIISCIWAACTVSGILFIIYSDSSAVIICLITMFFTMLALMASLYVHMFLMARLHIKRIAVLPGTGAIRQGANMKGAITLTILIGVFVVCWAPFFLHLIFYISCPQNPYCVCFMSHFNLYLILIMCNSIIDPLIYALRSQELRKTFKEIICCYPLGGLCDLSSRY

[8] = nonselective inhibitors of cellular cAMP signaling, dose response, counter-screen for MC4R biased antagonist project, cell-based, TR-FRET cAMP detection (AID 602305); format: functional;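 also: U2OS cells stimulated with forskolin near its EC80 as the cAMP inducer; potency is for inhibition of forskolin-stimulated cAMP signaling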
[9] = CAL PDZ domain peptide-binding inhibitors, dose response, biochemical, fluorescence polarization, untagged CAL PDZ, cherry-pick, set 2 (AID 602254); format: functional
BJ [10] = assay: cytotoxicity toward BJ-TERT fibroblasts, dose response, cell-based, RAS-independent, luminescence (AID 1933); format: functional; settings: Homo sapiens
BJ [11] = assay: cells; format: functional, cell-based; settings: Homo sapiens
[12] = target: Luciferin 4-monooxygenase (Photinus pyralis, UniProt P08659); assay: firefly luciferase enzyme inhibitors, dose response, biochemical, luminescence (AID 1891)
Luciferin 4-monooxygenase, sequence (P08659 whole entry): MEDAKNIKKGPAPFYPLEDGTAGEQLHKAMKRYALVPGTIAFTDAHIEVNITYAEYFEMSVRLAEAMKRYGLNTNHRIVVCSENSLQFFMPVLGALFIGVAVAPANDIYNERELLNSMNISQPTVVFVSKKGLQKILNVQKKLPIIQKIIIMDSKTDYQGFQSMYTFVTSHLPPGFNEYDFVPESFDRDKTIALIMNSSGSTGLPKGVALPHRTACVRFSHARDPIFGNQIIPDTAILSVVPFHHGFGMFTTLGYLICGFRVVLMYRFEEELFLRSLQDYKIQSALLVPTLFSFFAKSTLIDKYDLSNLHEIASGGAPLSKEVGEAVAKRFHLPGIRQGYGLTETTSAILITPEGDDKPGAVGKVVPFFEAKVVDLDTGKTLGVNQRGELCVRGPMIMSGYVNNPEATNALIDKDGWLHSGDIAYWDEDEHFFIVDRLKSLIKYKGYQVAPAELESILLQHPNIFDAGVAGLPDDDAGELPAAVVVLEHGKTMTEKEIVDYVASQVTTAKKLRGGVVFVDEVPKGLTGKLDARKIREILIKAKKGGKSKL

[13] = Luminescence Cell-Based Dose Confirmation HTS to Identify Inhibitors of Platelet Dense Granule Release. [Related pubchem assays: 1663 (Primary HTS), 1678 (Summary of Project)]; format: functional
BJ [14] = assay: cytotoxicity toward BJ-TERT-LT-ST fibroblasts, dose response, cell-based, RAS-independent, luminescence (AID 1935); format: functional; settings: Homo sapiens;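 also: BJ fibroblasts immortalized with TERT plus LT and ST oncogenes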
[15] = cytotoxicity toward DRD oncogenic fibroblasts, dose response, cell-based, non-viral oncogenic, luminescence (AID 1934); format: functional; settings: Homo sapiens
BJ [16] = assay: cytotoxicity toward Ras-transformed BJeLR fibroblasts, dose response, cell-based, alamar blue fluorescence, cherrypicked samples (AID 2631); format: functional; settings: Homo sapiens;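 also: confirmatory dose-response assay in RAS-dependent BJ fibroblasts engineered with TERT, LT and ST, with cytotoxicity read by fluorescence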

## COc1cc(-c2[nH]c(C(=O)NCC3CCCO3)cc3c4ccccc4nc2-3)cc(OC)c1OC (stereo unspecified)
[1]
  IC50: 51.8 µM (inactive)
HEK293
  AC50: 37.8 µM (active)
[2]
  AC50: 44.3 µM (active)

## COc1cc(C(=O)Nc2cccc(C)c2C)c(Br)c(OC)c1OC
[3]
  IC50: 0.633 µM (active)

## O=C1/C(=C/c2ccncc2)SC(=S)N1Cc1ccccc1
HEK293
  AC50: 0.678 µM (active)
[2]
  AC50: 30.1 µM (active)
Vero
  CC50: > 25 µM (active)

## COc1ccc(N(CC(=O)Nc2ccccc2C(N)=O)S(=O)(=O)c2ccc(C)c([N+](=O)[O-])c2)cc1
[4]
  EC50: > 150 µM (inactive)
[5]
  EC50: 0.095 µM (active)
[6]
  EC50: > 180 µM (inactive)
[7]
  EC50: > 160 µM (inactive)

## CCOc1ccc(C(=O)CCC(=O)NCC(=O)OCc2ccccc2)cc1OCC
Melanocortin receptor 4
  IC50: > 64.6 µM (inactive)
[8]
  IC50: > 64.6 µM (inactive)

## COCCSc1nnc(NC(=O)Cc2ccc(OC)cc2)s1
[9]
  AC50: 101 µM (active)

## COc1cccc(C(=O)Nc2ccc(N3CCCC3)cc2)c1
BJ [10]
  EC50: 9.4 µM (active)
BJ [11]
  EC50: 3.26 µM (active)
[12]
  EC50: 0.856 µM (active)
[13]
  EC50: 1.2 µM (active)
BJ [14]
  EC50: 13.8 µM (active)
[15]
  EC50: 4.29 µM (active)
BJ [16]
  EC50: 86.1 µM (active)
